# Results from patent US5747463A, “Malonate derivatives of glycolipids as cell adhesion inhibitors” (Bristol-Myers Squibb Company, priority 1996, dated 1998).
# Key:
# [1] = system: platelet: HL-60 cell adhesion; experiment: HL-60 Platelet Cell Adhesion Assay; assay type: cell-based; conditions: 0.5 h; thrombin-activated human platelets: HL-60 5:1, 30 minutes at room temperature; read-out: P-selectin HL-60 Platelets IC50
# Procedure: HL-60 cells, obtained from American Type Culture Collection, were cultured in RPMI 1640 medium (GIBCO) supplemented with 20% fetal calf serum (Sigma) and 50 μg/ml gentamicin (GIBCO). Cells in log phase growth were harvested, washed and resuspended in Tyrodes buffer containing 5 mM HEPES and 0.2% bovine serum albumin and were fixed with 1% buffered formalin.
# Blood from normal human donors was anticoagulated with citrate, layered over 1-Step Platelets (Accurate Chemical Co.) and centrifuged at 350 g for 20 minutes at room temperature. The platelet band was collected, diluted in 2 volumes of Tyrode's Buffer with 5 mM HEPES, 10 mM EDTA, and 0.2% BSA (pH 7.4) (THEB) and centrifuged at 600 g for 10 minutes. The platelet pellet was resuspended in THEB and incubated at room temperature for 1 hour. Calcein-acetoxy methylester (Calcein-Am, Molecular Probes) was added to the platelets at a final concentration of 10 μM and incubated for 10 minutes at 37° C. to label the platelets. Without washing, the platelets were counted on a Coulter counter model ZM, and the concentration was adjusted to 1×10^7 /ml. The platelets were activated with 2 U/ml of human thrombin for 10 minutes in Tyrode's containing 2 mM CaCl2, 5 mM HEPES, and 0.2% BSA (pH 7.4) (THB) at 37° C. and immediately fixed with 1% buffered formalin for 1 to 2 hours at room temperature. A small aliquot of labeled platelets was removed before activation and designated as non-activated.
# Both platelets and HL-60 were washed in a ≥25 fold excess volume of Hanks Balanced Salt Solution (HBSS), resuspended in THB and counted. Cell concentrations were adjusted to 2×10^7 /ml for platelets and 4×10^6 /ml for HL-60, this ratio determined to be optimum for platelet: HL-60 cell adhesion. Compounds were incubated with 50 μl of platelets for 30 minutes at room temperature before addition of 50 μl of HL-60. This ratio of 5:1 platelets to HL-60 was incubated for 30 minutes at room temperature before addition of 0.2 ml of THB to increase the volume so the samples could be analyzed on a FACScan cytometer (Becton Dickinson). Non-activated platelets, and activated platelets with 10 mM EDTA were included as controls. Data were collected within a region set for the forward scatter channel corresponding to HL-60 size events.
# The percent HL-60 cells which contained bound platelets was determined for each test condition. The inhibition of binding was determined by comparison to standards which were treated with vehicle alone (representing 0% inhibition) and standards whose specific binding had been blocked by the use of EDTA (representing 100% inhibition), by the following formula: [formula] where x=HL-60 cells containing bound platelets in the presence of the compound;
# b=HL-60 cells containing bound platelets in the presence of EDTA;
# a=HL-60 cells containing bound platelets in the presence of compound vehicle;
# z=% inhibition of platelet: HL-60 cell adhesion
# [2] = system: rats; experiment: Reverse Passive Arthus Reaction in Rats (RPA); assay type: in vivo, male Sprague Dawley rats; parameters: key to RPA VP % Inhib. (vascular permeability): NS: no significant inhibition at 3 mg; conditions: single dose of 3 mg IV, rat, 4 hours after BSA
# From the text: The reverse passive Arthus reaction in rats is a modification of the method by Mulligan et al., as described in J. Clin. Invest, (1991) 88: 1396-1406. This is an experimental model in which the interaction of antigen-antibodycomplexes and complement leads to a severe vasculitis that is associated with edema, induration, erythema and hemorrhage. The interaction between the antigen-antibody complexes and complement leads to a localized influx of neutrophils. These neutrophils release a variety of mediators that are associated with tissue damage and vascular permeability. The localized inflammatory reaction is measured using different techniques i.e., vascular permeability and neutrophil influx which is evaluated both biochemically and microscopically.
# Male Sprague Dawley specific pathogen-free rats with jugular vein cannulae (280-320 g, Hill Top Labs, Pennsylvania) are used in these studies. Animals are acclimated for at least 1 day and individually housed in stainless steel cages. The dorsal region of the rats is closely clipped 2 days prior to the experiments and divided into 4 sites on each side of the midline. Prior to all injections the rats are sedated with 0.4 ml per 300 gm rat of ketamine/rompun [1000 mg (10 ml) of ketamine HCl is mixed with 40 mg (2.0 ml) Rompun] administered IP and or inhalation anesthesia with metafane (methoxyflurane).
# Bovin Serum Albumin (BSA) and rabbit polyclonal IgG rich in anti-BSA are purchased from Sigma Chemical Co. (St. Louis, Mo.). Radiolabelled ^125 I-BSA (spAct 1-5 μCi/μg) is purchased from Dupont NEN (Boston, Mass.).
# Each rat is administered intradermal (ID) injection of (0.4 mg, 0.6 mg and 0.8 mg) anti-BSA in a volume of 100 μl per injection in normal saline. The ID injections are randomized near the mid dorsal region on both sides of the back bone. Immediately after the ID injections of the anti-BSA, the rats are administered intravenous (IV) injections of BSA (10 mg in 1.0 ml) in normal saline containing ^125 I labeled BSA (1 μCi/ml BSA or 5.0 μCi/kg body/wt) for quantification of dermal valscular injury. Anti-inflammatory agents such as inhibitors of adhesion molecules of the present invention are administered IV at a single dose of 3 mg immediately after BSA. Four (4) hours after the IV injection of BSA, the rats are anesthetized with metafane and 2 to 3 ml of blood is withdrawn via the cannula into an anticoagulant containing (EDTA or Heparin) tube and plasma separated and saved for neutrophil and albumin quantitation. The rats are killed and the skin surrounding the injection site (15 mm diameter) is punched out and weighed. The skin sample and a fixed volume of plasma (0.1 to 1.0 ml) is analyzed in a gamma-counter for ^125 I content. Skin samples from the contralateral side are processed and analyzed for myeloperoxidase activity (MPO) as a measure of neutrophil accumulation. As needed, samples are also processed for histological evaluation of the reacted sites.
# The calculation of the plasma protein exudation into skin is made by determining the radioactivity in the tissue and relating this to the level of radioactive albumin in the blood at the time of sacrifice. […] [formula]
# Percent inhibition of the test compound at 3 mg was determined as follows: [formula] Myeloperoxidase (MPO)
# MPO is located in the azurophil granules of polymorphonuclear leukocytes (PMN). Because of its abundance in these cells (5% dry weight), this enzyme is used as a marker for tissue neutrophil content. For tissue MPO content, the method of Bradley, et al., was used as described in J. Invest. Dermatol. (1982) 78: 206-209. Biopsies from each treatment group were placed in plastic tubes (15×100 mm) containing 10 ml of 0.5% hexadecyltrimethylammonium bromide (HTAB) in 0.05M potassium phosphate buffer pH 6.0. The tissue was then homogenized with a Brinkmann Polytron homogenizer (10s). […]
# [3] = molecular target: T1, P-selectin (Homo sapiens, UniProt P16109); conditions: literature; cited from earlier work
# T1 sequence (P16109 42-830): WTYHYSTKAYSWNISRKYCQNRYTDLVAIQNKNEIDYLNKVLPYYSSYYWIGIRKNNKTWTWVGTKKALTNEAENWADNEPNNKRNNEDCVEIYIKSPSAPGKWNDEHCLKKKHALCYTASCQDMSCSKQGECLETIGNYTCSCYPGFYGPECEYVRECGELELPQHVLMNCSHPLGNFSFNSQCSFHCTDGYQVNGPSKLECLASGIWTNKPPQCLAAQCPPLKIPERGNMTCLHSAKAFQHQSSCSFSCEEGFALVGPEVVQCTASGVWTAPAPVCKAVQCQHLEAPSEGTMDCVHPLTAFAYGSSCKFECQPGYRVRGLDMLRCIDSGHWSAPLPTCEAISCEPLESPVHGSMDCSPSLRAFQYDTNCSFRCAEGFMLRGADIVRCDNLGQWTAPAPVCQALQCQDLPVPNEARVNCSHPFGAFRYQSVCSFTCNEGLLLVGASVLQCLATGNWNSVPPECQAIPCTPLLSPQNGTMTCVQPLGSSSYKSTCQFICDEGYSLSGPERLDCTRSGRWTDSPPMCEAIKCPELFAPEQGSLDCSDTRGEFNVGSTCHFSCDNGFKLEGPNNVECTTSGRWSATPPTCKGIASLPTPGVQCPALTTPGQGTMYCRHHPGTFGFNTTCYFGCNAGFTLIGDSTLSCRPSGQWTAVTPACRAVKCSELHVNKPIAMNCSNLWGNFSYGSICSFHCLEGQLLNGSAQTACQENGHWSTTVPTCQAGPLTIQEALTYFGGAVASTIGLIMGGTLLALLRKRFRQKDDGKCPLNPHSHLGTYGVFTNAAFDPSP
Compound,IC50 [1] [µM],RPA MPO % Inhib. (myeloperoxidase) [2] [%],RPA VP % Inhib. (vascular permeability) ([2]; printed as symbol),RPA VP % Inhib. (vascular permeability) [2] [%],inhibition of P-selectin mediated adhesion [3]
"CCCCCCCCCCCCC/C=C/[C@@H](OC(=O)c1ccccc1)[C@H](CO[C@H]1O[C@H](COCCC(C(=O)O)C(=O)O)[C@H](O)[C@H](O)[C@H]1O)NC(=O)CCCCCCCCCCCCCCC [Example 6, (2S,3R,4E)-3-Benzoyloxy-2-hexadecanoylamino-1-[6-O-(3,3-di-carboxyprop-1-yl)-α-D-galactopyranosyloxy]-4-octadecene]",13,25,NS,–,–
dextran sulfate,–,–,–,–,inhibit P-selectin mediated adhesion
fucoidan,–,–,–,–,inhibit P-selectin mediated adhesion
heparin,–,–,–,–,inhibit P-selectin mediated adhesion

# The next lines start with results.
IC50 [1] [µM],Compound,RPA MPO % Inhib. (myeloperoxidase) [2] [%],RPA VP % Inhib. (vascular permeability) ([2]; printed as symbol),RPA VP % Inhib. (vascular permeability) [2] [%],inhibition of P-selectin mediated adhesion [3]
22.9,"CCCCCCCCCCCCC/C=C/[C@@H](OC(=O)c1ccccc1)[C@H](CO[C@H]1O[C@H](CO)[C@H](O)[C@H](OCCCCC(C(=O)O)C(=O)O)[C@H]1O)NC(=O)CCCCCCCCCCCCCCC [Example 12, (2S,3R,4E)-3-Benzoyloxy-2-hexadecanoylamino-1-[3-O-(5,5-di-carboxypent-1-yl)-α-D-galactopyranosyloxy]-4-octadecene]",82,–,33,–
45,"CCCCCCCCCCCCC/C=C/[C@@H](OC(=O)c1ccccc1)[C@H](CO[C@@H]1O[C@H](CO)[C@H](O)[C@H](OCCCCC(C(=O)O)C(=O)O)[C@H]1O)NC(=O)CCCCCCCCCCCCCCC [Example 14, (2S,3R,4E)-3-Benzoyloxy-2-hexadecanoylamino-1-[3-O-(5,5-di-carboxypent-1-yl)-β-D-galactopyranosyloxy]-4-octadecene]",30.9,–,15.5,–
8.8,"CCCCCCCCCCCCC/C=C/[C@@H](OC(=O)c1ccccc1)[C@H](CO[C@@H]1O[C@H](CO)[C@H](O)[C@H](OC(=O)c2ccccc2)[C@H]1OCCCCC(C(=O)O)C(=O)O)NC(=O)CCCCCCCCCCCCCCC [Example 18, (2S,3R,4E)-3-Benzoyloxy-2-hexadecanoylamino-1-[2-O-(5,5-di-carboxypent-1-yl)-3-O-benzoyl-β-D-galactopyranosyloxy]-4-octadecene]",61.6,–,4.3,–
51,"CCCCCCCCCCCCC/C=C/[C@@H](OC(=O)c1ccccc1)[C@H](CO[C@H]1O[C@H](CO)[C@H](OCCC(C(=O)O)C(=O)O)[C@H](O)[C@H]1O)NC(=O)CCCCCCCCCCCCCCC [Example 24, (2S,3R,4E)-3-Benzoyloxy-2-hexadecanoylamino-1-[4-O-(3,3-di-carboxyprop-1-yl)-α-D-galactopyranosyloxy]-4-octadecene]",35,–,33.5,–
